Results on nine compounds are retold here after US10829648B2, “Succinate dehydrogenase inhibitor containing compositions” (priority 2012, dated 2020).

Holding throughout (type): cell-based
The subject of assay [1] is Aspergillus brasiliensis (ATCC 16404). Put plainly: Microtiter plate minimum inhibitory concentration (MIC) test, A. brasiliensis. The settings on record: for MIC: Aspergillus brasiliensis, ATCC16404, 168 h, read-out: MIC alone. Here is the method: (§1) Sample stock solution of Penflufen was prepared in DMSO at 20000 ppm (active ingredient).
(§2) Microorganisms grown on agar slants were harvested using standard microbiological techniques. The numbers of mold spores were determined by counted using a hemocytometer, and then inoculum was prepared in the media shown in Table 2. Then, 190 ul of inoculum was added into each well containing 10 ul of the serially diluted sample solution.

The test system of assay [2] is Trichoderma virens (ATCC 9645). The assay can be described thus: Microtiter plate MIC test, T. virens. Conditions: for MIC: Trichoderma virens, ATCC9645, 168 h, read-out: MIC alone. Here is the method:
as §1, §2

Assay [3] has as its system Aspergillus niger (ATCC 9642). The assay can be described thus: Microtiter plate MIC test, A. niger. The settings on record: for MIC: Aspergillus niger, ATCC9642, 168 h, read-out: MIC alone. Here is the method: as §1, §2
For a further assay, the system named is P. pinophilum. The assay can be described thus: Microtiter plate MIC test, P. pinophilum. The settings on record: for MIC: 168 h, read-out: MIC alone. Here is the method:
as §1, §2

Assay [4] deals with Aureobasidium pullulans (ATCC 9348). Put plainly: Microtiter plate MIC test, A. pullulans. The settings on record: for MIC: Aureobasidium pullulans, ATCC9348, 168 h, read-out: MIC alone. Here is the method:
as §1, §2

The next assay has as its system Coniophora puteana. The assay can be described thus: Agar dilution MIC against decay fungus Coniophora puteana. Conditions: for MIC: Coniophora puteana, 216 h, read-out: Coniophora puteana MIC (ppm). Here is the method: (§3) Total 17 samples, including Penflufen, 8 Penflufen-potentiator blends and 8 potentiators were submitted for evaluation.
(§4) Decay fungi Antrodia sinuosa and Coniophora puteana were obtained from GTS microbiology lab fungal collection and cultured on Potato Dextrose Agar at 28° C.
(§5) The samples were diluted to test at a starting concentration of 1,000 ppm active based on the concentration of Penflufen in the samples. Samples were serially diluted into the molten Potato Dextrose Agar before the agar was solidified. The agar plugs with active fungal hyphae growth were inoculated onto the prepared agar surface.
(§6) All concentrations reported are in ppm.
Background: In agar dilution the substance is mixed into plates at graded concentrations.

A further assay concerns Antrodia sinuosa. Put plainly: Agar dilution MIC against decay fungus Antrodia sinuosa. Conditions: for MIC: Adustoporia sinuosa, 216 h, read-out: Antrodia sinuosa MIC (ppm). Here is the method: as §3, §4, §5, §6
[5] abbreviates: substance alone, A. brasiliensis, 28° C., 7 days, ppm.
Setting [6] is: substance alone, T. virens, 28° C., 7 days, ppm.
Setting [7] is: substance alone, A. niger, 28° C., 7 days, ppm.
Where [8] appears, read: substance alone, P. pinophilum, 28° C., 7 days, ppm.
Where [9] appears, read: substance alone, A. pullulans, 28° C., 7 days, ppm.
Where [10] appears, read: active or potentiator alone, Potato Dextrose Agar, 28° C., 9 days, complete inhibition of hyphae growth.

≈ marks a conversion by molar mass, not a printed value. Where two headings read alike, the source gives them in different places.

Consider `Cc1ccc(S(N)(=O)=O)cc1`, for which the MIC alone (in assay [1] (setting [5]); in assay [2] (setting [6]); in assay [3] (setting [7]); against P. pinophilum (setting [8]); in assay [4] (setting [9])) was 5000 ppm throughout.

For the compound `CCCCCCCCCCCCN(C)C` [Barlene 12, N,N-Dimethyl-N-dodecylamine], the MIC in the assay on Coniophora puteana was determined as 500 µg/mL; in the assay on Antrodia sinuosa, 250 µg/mL; in assay [1], 31.2 µg/mL (≈ 146 µM); in assay [2] it was 7.81 µg/mL (≈ 36.6 µM); in assay [3] it was 250 µg/mL (≈ 1170 µM); in the assay on P. pinophilum, 7.81 µg/mL (≈ 36.6 µM). In addition, the MIC in assay [4] was 7.81 µg/mL (≈ 36.6 µM).

Regarding `CC(=O)c1c([O-])cc(C)oc1=O.CC(=O)c1c([O-])cc(C)oc1=O.[Zn+2]` [DHA Zn, Dehydroacetic acid zinc salt], the “Coniophora puteana MIC (ppm)” value with Coniophora puteana (setting [10]) was 125 ppm. In addition, the “Antrodia sinuosa MIC (ppm)” value in the assay with Antrodia sinuosa (setting [10]) amounted to 125 ppm. In addition, the MIC alone in assay [1] (setting [5]) is recorded as 500 ppm; in assay [2] (setting [6]) it was 250 ppm; in assay [3] (setting [7]), 500 ppm; against P. pinophilum (setting [8]) it was over 1000 ppm; in assay [4] (setting [9]), 1000 ppm.

Take `CCCCCCCC/C=C\CCCCCCCCN` [Oleylamine, (Z)-Octa-9-decenylamine]: in the assay with Coniophora puteana (setting [10]), the “Coniophora puteana MIC (ppm)” value stood at 50.0 ppm. Moreover, the “Antrodia sinuosa MIC (ppm)” value in the assay with Antrodia sinuosa (setting [10]) is reported as 50.0 ppm. The MIC alone in assay [1] (setting [5]) is listed as 2.5 ppm; in assay [2] (setting [6]), 0.625 ppm; in assay [3] (setting [7]), 1.25 ppm; with P. pinophilum (setting [8]), 1.25 ppm; in assay [4] (setting [9]), 0.31 ppm.

Regarding `Cc1nn(C)c(F)c1C(=O)Nc1ccccc1C(C)CC(C)C` (centres unmarked) [Penflufen, N-[2-(1,3-dimethylbutyl)phenyl]-5-fluoro-1,3-dimethyl-1H-pyrazole-4-carboxamide, reference compound], the MIC in the assay on Coniophora puteana (setting [10]) was 125 µg/mL; in the assay on Antrodia sinuosa (setting [10]), 62.5 µg/mL; in assay [1] (setting [5]), 15.7 µg/mL (≈ 49.3 µM); in assay [2] (setting [6]) it was over 1000 µg/mL; in assay [3] (setting [7]) it was 7.81 µg/mL (≈ 24.6 µM); in the assay with P. pinophilum (setting [8]), over 1000 µg/mL. Further, in assay [4] (setting [9]), the minimal inhibitory concentration (MIC) turned out to be 500 µg/mL (≈ 1580 µM).

Regarding `O=C([O-])c1ccccc1.[Na+]` [Sodium benzoate], the “Coniophora puteana MIC (ppm)” value in the assay on Coniophora puteana (setting [10]) is recorded as 313 ppm. In the assay with Antrodia sinuosa (setting [10]), the “Antrodia sinuosa MIC (ppm)” value amounted to 1250 ppm.

For the compound Isononoic Acid, the “Coniophora puteana MIC (ppm)” value with Coniophora puteana (setting [10]) turned out to be 156 ppm. In the assay with Antrodia sinuosa (setting [10]), the “Antrodia sinuosa MIC (ppm)” value came to 313 ppm. Also, the MIC alone in assay [1] (setting [5]) was found to be 1250 ppm; in assay [2] (setting [6]), 625 ppm; in assay [3] (setting [7]), 625 ppm; in the assay on P. pinophilum (setting [8]), 625 ppm; in assay [4] (setting [9]) it was 625 ppm.

“Tris(2-hydroxyethyl)-N-tallowalkyl-1,3-diaminopropane [Ethoduomeen]”: the “Coniophora puteana MIC (ppm)” value in the assay on Coniophora puteana (setting [10]) amounted to 2500 ppm. Further, the “Antrodia sinuosa MIC (ppm)” value in the assay with Antrodia sinuosa (setting [10]) is recorded as 625 ppm. Also, the MIC alone in assay [1] (setting [5]) is listed as under 4.88 ppm; in assay [2] (setting [6]), under 4.88 ppm; in assay [3] (setting [7]) it was under 4.88 ppm; in the assay on P. pinophilum (setting [8]), under 4.88 ppm; in assay [4] (setting [9]) it was 9.76 ppm.

cocoamine oxide [Barlox 12]: in the assay on Coniophora puteana (setting [10]), the “Coniophora puteana MIC (ppm)” value came to 250 ppm. The “Antrodia sinuosa MIC (ppm)” value with Antrodia sinuosa (setting [10]) amounted to 62.5 ppm. Besides, the MIC alone turned out to be 62.5 ppm in assay [1] (setting [5]); 125 ppm in assay [2] (setting [6]); 15.62 ppm in assay [3] (setting [7]); 62.5 ppm against P. pinophilum (setting [8]); 15.62 ppm in assay [4] (setting [9]).

One may read the MIC as the least concentration at which growth counts as inhibited.
